pIC50: −log10 of the molar value.
Columns and labels:
[1] = rat; cited from earlier work
TMD8 human DLBCL cells = experiment: TMD8 growth assay; assay type: cell-based; conditions: 72 hours, Resazurin, Table 3 categories
Experimental: Compounds were assayed for effects on the growth of TMD8 human DLBCL cells that are dependent on NFκB signalling. TMD8 cells were grown in suspension in T225 flasks, centrifuged and re-suspended in 2.5% FBS containing media. Cells were then plated at 1.0×10^4 cells per well in 96-well plates in varying concentrations of compound and incubated for 72 hours at 37° C. An additional plate of cells to be used as the Day 0 read was seeded without compound addition, Resazurin was added to each well, incubated for 5 h and the fluorescence measured at 590 nm. After 72 h of compound treatment, Resazurin was added to each well of the compound treated plates, incubated for 5 hours and the fluorescence measured at 590 nm. The IC50 was then calculated but subtracting the average Day 0 value from each well value from the treated plates, each treatment was then calculated as a percentage of the DMSO control and the percentages plotted against the inhibitor concentration to estimate the IC50 from log [Inhibitor] vs response using the Variable Slope model in Graphpad prism from Graphpad software (San Diego, Calif.).

Recombinant EGFR = biological target: T1, Recombinant EGFR (Homo sapiens, UniProt P00533); experiment: EGFR binding affinity (TR-FRET); conditions: 2.5 nM recombinant EGFR, five hours incubation, Table 3 categories
T1 construct: purchased Invitrogen
Experimental: EGFR binding affinity was determined using a time-resolved fluorescence resonance energy transfer (TR-FRET) methodology. 2.5 nM Recombinant EGFR, varying concentrations of inhibitor, 2 nM LanthaScreen™ Eu anti-GST Antibody and 3 nM Kinase Tracer 199 was incubated in 1× LanthaScreen™ Kinase Buffer A for five hours. Recombinant EGFR and all LanthaScreen™ components were purchased from Invitrogen. Measurements were performed in a reaction volume of 30 μL using half-area 96-well assay plates. The TR-FRET signal was read on a plate reader with an excitation wavelength of 340 nm and detection wavelengths of 615 and 665 nm. Binding affinity was determined for each compound by measuring TR-FRET signal at various concentrations of compound and plotting the relative fluorescence units against the inhibitor concentration to estimate the IC50 from log [Inhibitor] vs response using the Variable Slope model in Graphpad prism from Graphpad software (SanDiego, Calif.).

Recombinant BTK kinase = biological target: T2, Recombinant BTK kinase (Homo sapiens, UniProt Q06187); experiment: BTK binding affinity (TR-FRET)
T2 construct: purchased Invitrogen
Experimental: BTK binding affinity of each compound tested was determined using a time-resolved fluorescence resonance energy transfer (TR-FRET) methodology. 2.5 nM Recombinant BTK kinase, varying concentrations of inhibitor, 2 nM LanthaScreen™ Eu anti-His Antibody and 15 nM Kinase Tracer 236 was incubated in 1× LanthaScreen™ Kinase Buffer A for five hours. Recombinant BTK kinase and all LanthaScreen™ components were purchased from Invitrogen. Measurements were performed in a reaction volume of 30 μL using half-area 96-well assay plates. The TR-FRET signal was read on a plate reader with an excitation wavelength of 340 nm and detection wavelengths of 615 and 665 nm. Binding affinity was determined for each compound by measuring TR-FRET signal at various concentrations of compound and plotting the relative fluorescence units against the inhibitor concentration to estimate the IC50 from log [Inhibitor] vs response using the Variable Slope model in Graphpad prism from Graphpad software (SanDiego, Calif.).

[2] = 2.5 nM recombinant BTK, five hours incubation, Table 3 categories

T2 sequence (Q06187 whole entry): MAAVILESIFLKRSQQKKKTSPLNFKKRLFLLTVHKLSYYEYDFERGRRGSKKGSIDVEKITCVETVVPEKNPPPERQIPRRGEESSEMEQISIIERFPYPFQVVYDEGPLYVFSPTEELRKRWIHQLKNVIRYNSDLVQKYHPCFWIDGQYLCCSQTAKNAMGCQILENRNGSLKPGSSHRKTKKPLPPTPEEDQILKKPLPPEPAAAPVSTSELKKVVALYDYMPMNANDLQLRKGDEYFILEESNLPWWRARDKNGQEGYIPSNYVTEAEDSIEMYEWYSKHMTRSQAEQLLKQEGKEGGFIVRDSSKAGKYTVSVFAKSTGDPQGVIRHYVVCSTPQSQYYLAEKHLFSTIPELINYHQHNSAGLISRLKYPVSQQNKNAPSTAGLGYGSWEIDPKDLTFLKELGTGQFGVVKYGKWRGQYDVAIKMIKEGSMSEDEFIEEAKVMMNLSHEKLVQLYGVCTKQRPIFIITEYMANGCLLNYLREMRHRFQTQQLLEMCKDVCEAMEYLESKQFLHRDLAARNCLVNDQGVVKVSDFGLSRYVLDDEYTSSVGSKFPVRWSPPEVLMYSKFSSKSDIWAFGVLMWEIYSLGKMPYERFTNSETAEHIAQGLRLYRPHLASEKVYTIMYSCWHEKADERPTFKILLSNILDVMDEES
T1 sequence (P00533 25-1210): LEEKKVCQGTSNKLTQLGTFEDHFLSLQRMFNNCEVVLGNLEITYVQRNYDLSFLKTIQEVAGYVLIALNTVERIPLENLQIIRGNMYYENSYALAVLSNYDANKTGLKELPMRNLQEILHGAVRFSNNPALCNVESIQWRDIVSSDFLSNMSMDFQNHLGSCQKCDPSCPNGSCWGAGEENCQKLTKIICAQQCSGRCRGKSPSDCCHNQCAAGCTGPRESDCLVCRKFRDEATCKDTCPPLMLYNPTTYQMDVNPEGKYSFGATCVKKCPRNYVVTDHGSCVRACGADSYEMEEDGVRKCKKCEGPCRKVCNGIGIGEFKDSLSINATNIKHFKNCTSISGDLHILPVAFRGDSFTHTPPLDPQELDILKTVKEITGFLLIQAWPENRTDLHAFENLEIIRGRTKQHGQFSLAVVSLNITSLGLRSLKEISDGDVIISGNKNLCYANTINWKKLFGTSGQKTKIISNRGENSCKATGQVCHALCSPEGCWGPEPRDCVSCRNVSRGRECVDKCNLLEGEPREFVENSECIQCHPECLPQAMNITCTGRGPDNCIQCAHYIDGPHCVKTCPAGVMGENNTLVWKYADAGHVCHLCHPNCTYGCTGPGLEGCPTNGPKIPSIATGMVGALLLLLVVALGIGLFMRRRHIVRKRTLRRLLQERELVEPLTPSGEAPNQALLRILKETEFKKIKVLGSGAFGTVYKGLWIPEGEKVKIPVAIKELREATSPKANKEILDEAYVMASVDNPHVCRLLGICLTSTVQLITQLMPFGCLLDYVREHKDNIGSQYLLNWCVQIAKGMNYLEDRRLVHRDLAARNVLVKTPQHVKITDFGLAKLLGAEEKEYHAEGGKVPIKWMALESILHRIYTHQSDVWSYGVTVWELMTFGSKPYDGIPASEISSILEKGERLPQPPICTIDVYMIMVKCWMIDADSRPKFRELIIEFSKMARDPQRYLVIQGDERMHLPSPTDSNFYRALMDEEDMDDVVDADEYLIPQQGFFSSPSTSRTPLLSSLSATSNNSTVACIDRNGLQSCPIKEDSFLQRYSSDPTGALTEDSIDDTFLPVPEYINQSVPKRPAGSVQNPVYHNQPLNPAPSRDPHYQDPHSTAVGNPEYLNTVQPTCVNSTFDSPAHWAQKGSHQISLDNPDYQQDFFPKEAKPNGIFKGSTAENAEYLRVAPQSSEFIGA

Row | pIC50 (Recombinant EGFR) | pIC50 (Recombinant BTK kinase; [2]) | pIC50 (Recombinant BTK kinase; Table 4 numeric values) | SMILES | bioavailability [1] | estimated fraction absorbed [1] | pIC50 (TMD8 human DLBCL cells)
1 |  |  |  | C=CC(=O)N1CCC[C@@H](n2nc(-c3ccc(Oc4ccccc4)cc3)c3c(N)ncnc32)C1 [Ibrutinib] | poor | low | 
2 | > 7.60 | 8.00 to 9.00 |  | C=CC(=O)N1CCC[C@@H](n2nc(-c3ccc(CNC(=O)c4ccc(C(F)(F)F)cc4F)cc3)c3c(N)ncnc32)C1 [ID No. 36, N-[[4-[4-amino-1-[(3R)-1-prop-2-enoyl-3-piperidyl]pyrazolo[3,4-d]pyrimidin-3-yl]phenyl]methyl]-2-fluoro-4-(trifluoromethyl)benzamide] |  |  | 6.52 to 7.60
3 | 7.10 to 7.60 | 9.00 to 9.30 | 9.15 | C=CC(=O)N1CCC[C@@H](n2nc(-c3ccc(CNC(=O)c4ccc(C)cc4OC)cc3)c3c(N)ncnc32)C1 [ID No. 15, N-[[4-[4-amino-1-[(3R)-1-prop-2-enoyl-3-piperidyl]pyrazolo[3,4-d]pyrimidin-3-yl]phenyl]methyl]-2-methoxy-4-methyl-benzamide] |  |  | > 8.30

— patent US9975897B2, “Pyrazolopyrimidine derivatives useful as inhibitors of Bruton's tyrosine kinase” (Loxo Oncology, Inc., priority 2014, dated 2018)
